In US11001587B2, “Substituted indazoles as phosphatidylinositol kinase inhibitors” (CUROVIR AB, priority 2017, dated 2021):
Where two headings read alike, the source gives them in different places.

Tests used:
coxsackie B5 virus = assay: In vitro CPE assay in mammalian cell culture, B5; assay type: cell-based; details: viral cytopathic effect in mammalian cell culture, read-out: B5 inhibition capacity (IC50)
PI4KIIIβ = PI4KIIIβ (Homo sapiens, UniProt Q9UBF8); assay: Phosphatidyl inositol kinase inhibition assay (ADP-Glo Kinase Assay); assay type: biochemical
Sequence of PI4KIIIβ (Q9UBF8 whole entry): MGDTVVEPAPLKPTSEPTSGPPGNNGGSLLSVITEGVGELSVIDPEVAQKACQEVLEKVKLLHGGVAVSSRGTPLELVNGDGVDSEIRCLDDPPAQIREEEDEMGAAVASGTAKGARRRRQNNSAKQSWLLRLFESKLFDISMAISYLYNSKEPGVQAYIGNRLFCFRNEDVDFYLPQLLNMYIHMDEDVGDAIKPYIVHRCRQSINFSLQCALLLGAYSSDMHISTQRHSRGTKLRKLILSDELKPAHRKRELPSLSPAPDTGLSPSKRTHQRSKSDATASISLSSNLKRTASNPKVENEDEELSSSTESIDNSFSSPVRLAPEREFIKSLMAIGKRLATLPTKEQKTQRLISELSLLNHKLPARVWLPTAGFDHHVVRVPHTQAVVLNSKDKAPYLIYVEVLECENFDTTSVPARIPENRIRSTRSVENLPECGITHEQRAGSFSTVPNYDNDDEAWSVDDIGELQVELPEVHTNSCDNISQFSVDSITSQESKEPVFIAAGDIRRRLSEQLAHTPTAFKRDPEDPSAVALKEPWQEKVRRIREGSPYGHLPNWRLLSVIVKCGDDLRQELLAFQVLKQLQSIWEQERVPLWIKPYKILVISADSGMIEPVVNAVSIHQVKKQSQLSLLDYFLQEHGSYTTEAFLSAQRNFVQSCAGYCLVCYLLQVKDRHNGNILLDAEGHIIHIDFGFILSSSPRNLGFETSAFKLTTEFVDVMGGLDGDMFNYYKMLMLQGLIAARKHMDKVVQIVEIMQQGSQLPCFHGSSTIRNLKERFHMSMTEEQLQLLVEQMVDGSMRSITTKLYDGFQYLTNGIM
Method: (§1) Phosphatidyl inositol kinase inhibition assay Inhibition of PI4 kinases was studied using the ADP-Glo™ Kinase Assay which is a luminescent kinase assay that measures ADP formed from a kinase reaction, wherein ADP is converted into ATP, which is converted into light by Ultra-Glo™ Luciferase. The assay is performed in two steps; first, after the kinase reaction, an equal volume of ADP-Glo™ Reagent is added to terminate the kinase reaction and deplete the remaining ATP. In the second step, the Kinase Detection Reagent is added, which simultaneously converts ADP to ATP and allows the newly synthesized ATP to be measured using a coupled luciferase/luciferin reaction. The luminescent signal produced is proportional to the activity of the kinase. Inhibition of PI3 kinases was studied using the HTRF (homogeneous time-resolved fluorescence) assay, which is a universal method for identifying and characterizing the phosphotransferase activity induced by any ATP/ADP dependent target. The formation of ADP was detected by a specific monoclonal antibody labeled with Eu^3+ cryptate, and directly correlated with the amount of phosphorylated substrate.

PI4KIIIα = PI4KIIIα (Homo sapiens, UniProt P42356); assay: as above; assay type: biochemical; details: * no inhibition at the highest tested concentration 1 μM
Sequence of PI4KIIIα (P42356 whole entry): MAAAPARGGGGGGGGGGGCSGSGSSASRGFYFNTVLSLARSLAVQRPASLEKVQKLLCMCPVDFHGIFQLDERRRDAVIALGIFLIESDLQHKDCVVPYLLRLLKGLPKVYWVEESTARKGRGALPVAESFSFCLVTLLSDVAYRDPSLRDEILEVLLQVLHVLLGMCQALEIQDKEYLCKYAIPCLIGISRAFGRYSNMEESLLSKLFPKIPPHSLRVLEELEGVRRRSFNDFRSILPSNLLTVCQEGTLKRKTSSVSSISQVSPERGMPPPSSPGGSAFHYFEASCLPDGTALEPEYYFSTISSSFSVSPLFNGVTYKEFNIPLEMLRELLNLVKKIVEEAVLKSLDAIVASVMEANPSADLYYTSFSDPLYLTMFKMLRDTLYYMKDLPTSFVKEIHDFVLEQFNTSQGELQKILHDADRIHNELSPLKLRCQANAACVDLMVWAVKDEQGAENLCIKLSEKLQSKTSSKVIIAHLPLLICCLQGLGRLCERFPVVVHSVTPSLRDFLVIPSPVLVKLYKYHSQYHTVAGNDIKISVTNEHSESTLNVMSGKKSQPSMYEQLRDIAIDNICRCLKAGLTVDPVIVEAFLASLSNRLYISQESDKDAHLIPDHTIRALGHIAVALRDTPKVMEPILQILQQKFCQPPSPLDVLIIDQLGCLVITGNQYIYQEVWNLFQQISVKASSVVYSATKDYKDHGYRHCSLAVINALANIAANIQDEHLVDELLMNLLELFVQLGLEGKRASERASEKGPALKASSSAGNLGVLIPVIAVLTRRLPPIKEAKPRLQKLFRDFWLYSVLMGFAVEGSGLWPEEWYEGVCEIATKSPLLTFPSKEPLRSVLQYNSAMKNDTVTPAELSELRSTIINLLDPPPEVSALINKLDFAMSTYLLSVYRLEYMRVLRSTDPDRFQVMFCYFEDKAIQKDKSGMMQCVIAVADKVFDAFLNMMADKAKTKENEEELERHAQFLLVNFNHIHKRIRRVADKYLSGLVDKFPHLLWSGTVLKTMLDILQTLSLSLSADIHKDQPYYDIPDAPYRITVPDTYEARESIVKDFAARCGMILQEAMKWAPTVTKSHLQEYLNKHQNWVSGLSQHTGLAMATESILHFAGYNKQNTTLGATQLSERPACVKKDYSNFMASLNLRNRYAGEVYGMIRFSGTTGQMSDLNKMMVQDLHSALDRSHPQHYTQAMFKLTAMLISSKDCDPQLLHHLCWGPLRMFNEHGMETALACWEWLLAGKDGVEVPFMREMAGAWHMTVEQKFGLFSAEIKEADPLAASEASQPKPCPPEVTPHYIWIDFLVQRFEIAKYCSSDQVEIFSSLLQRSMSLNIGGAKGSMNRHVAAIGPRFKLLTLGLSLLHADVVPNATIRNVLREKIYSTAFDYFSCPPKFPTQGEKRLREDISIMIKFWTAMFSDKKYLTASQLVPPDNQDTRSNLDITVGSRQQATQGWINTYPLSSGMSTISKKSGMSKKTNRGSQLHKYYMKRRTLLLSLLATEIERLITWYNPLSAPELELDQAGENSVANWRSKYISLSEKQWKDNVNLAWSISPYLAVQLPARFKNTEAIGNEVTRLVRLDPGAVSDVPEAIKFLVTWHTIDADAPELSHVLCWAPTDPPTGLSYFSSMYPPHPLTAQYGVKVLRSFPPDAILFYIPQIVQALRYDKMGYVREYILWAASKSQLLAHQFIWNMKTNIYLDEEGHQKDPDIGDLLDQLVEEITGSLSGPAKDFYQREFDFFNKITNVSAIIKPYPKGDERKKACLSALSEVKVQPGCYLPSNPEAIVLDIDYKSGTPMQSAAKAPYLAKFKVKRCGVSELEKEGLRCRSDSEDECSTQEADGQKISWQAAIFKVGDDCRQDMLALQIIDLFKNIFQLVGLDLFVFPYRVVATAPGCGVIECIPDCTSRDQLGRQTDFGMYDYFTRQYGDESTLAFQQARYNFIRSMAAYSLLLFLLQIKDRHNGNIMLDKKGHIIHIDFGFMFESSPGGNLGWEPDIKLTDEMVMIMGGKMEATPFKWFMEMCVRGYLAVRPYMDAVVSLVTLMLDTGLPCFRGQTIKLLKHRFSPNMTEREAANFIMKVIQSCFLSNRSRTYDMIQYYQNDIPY
Method: as §1

PI3Kα = PI3Kα (Homo sapiens, UniProt P42336); assay: PI3 kinase inhibition HTRF assay; assay type: biochemical; details: * no inhibition at the highest tested concentration 1 μM
Method: as §1

PI3Kβ = PI3Kβ (Homo sapiens, UniProt P42338); assay: PI3 kinase inhibition HTRF assay; assay type: biochemical; details: * no inhibition at the highest tested concentration 1 μM
Sequence of PI3Kβ (P42338 whole entry, species assumed): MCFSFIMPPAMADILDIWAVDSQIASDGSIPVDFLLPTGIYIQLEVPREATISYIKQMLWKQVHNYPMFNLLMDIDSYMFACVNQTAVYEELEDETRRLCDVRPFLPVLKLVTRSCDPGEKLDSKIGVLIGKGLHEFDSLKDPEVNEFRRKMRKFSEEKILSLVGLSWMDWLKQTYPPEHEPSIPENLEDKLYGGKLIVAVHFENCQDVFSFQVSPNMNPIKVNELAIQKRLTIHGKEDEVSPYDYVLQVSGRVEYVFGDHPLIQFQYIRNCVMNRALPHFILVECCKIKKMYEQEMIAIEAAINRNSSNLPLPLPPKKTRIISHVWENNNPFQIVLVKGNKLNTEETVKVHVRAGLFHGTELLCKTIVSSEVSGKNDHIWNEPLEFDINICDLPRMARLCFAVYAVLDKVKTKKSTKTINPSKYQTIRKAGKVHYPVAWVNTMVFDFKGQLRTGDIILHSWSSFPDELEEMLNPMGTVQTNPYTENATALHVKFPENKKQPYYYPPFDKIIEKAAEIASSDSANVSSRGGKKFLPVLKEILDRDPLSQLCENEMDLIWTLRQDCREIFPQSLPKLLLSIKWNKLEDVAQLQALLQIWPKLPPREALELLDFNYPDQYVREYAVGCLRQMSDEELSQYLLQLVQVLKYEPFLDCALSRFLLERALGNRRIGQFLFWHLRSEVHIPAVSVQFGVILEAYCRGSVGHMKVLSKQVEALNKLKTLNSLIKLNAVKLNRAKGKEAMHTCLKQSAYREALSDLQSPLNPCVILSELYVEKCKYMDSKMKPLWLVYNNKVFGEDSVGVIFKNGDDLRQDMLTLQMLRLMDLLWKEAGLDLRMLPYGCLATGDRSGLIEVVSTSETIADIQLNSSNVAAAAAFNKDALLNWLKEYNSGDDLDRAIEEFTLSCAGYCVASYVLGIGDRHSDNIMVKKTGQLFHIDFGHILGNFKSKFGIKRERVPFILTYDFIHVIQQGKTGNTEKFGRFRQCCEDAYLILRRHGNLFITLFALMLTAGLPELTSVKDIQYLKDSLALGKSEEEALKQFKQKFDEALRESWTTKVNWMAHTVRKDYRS
Sequence of PI3Kβ (P27986 whole entry partner, species assumed): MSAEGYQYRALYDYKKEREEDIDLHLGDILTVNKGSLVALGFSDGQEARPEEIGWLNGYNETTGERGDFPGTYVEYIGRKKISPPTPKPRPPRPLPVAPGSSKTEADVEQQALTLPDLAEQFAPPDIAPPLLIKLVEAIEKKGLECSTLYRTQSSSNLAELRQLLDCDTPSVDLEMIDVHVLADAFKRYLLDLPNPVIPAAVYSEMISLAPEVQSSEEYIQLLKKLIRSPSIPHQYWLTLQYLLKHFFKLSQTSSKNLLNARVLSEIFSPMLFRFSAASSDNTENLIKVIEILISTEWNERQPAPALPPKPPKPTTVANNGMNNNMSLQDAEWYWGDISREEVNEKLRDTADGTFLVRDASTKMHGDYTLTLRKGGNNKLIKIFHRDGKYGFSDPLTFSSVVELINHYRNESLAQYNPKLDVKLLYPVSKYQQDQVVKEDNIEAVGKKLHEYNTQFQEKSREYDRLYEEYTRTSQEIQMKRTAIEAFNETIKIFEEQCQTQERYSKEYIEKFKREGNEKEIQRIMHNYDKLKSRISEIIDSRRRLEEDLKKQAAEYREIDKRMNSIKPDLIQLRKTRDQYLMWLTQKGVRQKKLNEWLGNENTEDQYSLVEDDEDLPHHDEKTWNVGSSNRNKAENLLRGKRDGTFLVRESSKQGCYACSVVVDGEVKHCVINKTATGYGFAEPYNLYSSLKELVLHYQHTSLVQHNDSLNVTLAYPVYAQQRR
Method: as §1

coxsackie B4 virus = assay: In vitro CPE assay in mammalian cell culture, B4; assay type: cell-based; details: Enterovirus B, viral cytopathic effect in mammalian cell culture, read-out: B4 inhibition capacity (IC50)
in vivo [1] = assay: in vivo; set-up: species or system Sprague Dawley rats; details: Sprague Dawley, rat, po
Method: Based on previous toxicity tests with analogs and pharmacokinetic data, repeated dose toxicity and toxicokinetic studies were conducted to generate information on the toxic characteristics of some representative compounds of the invention, viz. Example 8 and Example 12, respectively, when administered orally by gavage to Sprague Dawley rats for a period of 7 consecutive days. The study plan for the studies was by current ICH guidelines for 7 days toxicity studies and the No Observed Adverse Effect Level (NOAEL) of Example 8 and Example 12 was determined as 60 mg/kg body weight/day and 50 mg/kg bodyweight/day respectively when administered once daily orally to Sprague Dawley rats for 7 consecutive days under the tested dose levels and experimental conditions employed.

[2] = Metabolic stability in human liver microsomes; assay type: in vitro ADME; details: for Remaining after 1 h, HLM: human liver microsomes, 5 μM test item, 0.125 mg/mL microsomal protein; for half-life at 5 μM: human, microsomes
Method: (§2) Metabolic stability in human and rat liver microsomesMetabolic stability was studied using human (HLM) or rat (RLM) liver microsomes. The final composition of the assay included 5 μM of test item and reference item (Diclofenac or Imipramine) prepared from DMSO stock, so that the final concentration of DMSO was 0.1%, 0.125 mg/mL microsomal protein and cofactors (5.0 mM G-6-P, 0.06 U/mL G-6-PDH, 2.0 mM MgCl2, 1.0 mM NADP^+). Test and reference items were incubated with human or rat liver microsomes with or without cofactors. The reaction mixture (100 μL) was removed at specified time periods and the reaction was stopped by addition of stop solution. The samples were extracted in presence of internal standard and were analyzed using LC-MS/MS. The percent of the test/reference item remaining after a specified incubation period was calculated with respect to the peak area ratio at time 0 min.

in vitro = in vitro ADME; details: plasma, pH 7.4
Method: Plasma protein binding study was performed by using a Rapid Equilibrium Dialysis (RED) device containing dialysis membrane with a molecular weight cut-off of 8,000 Daltons. Each dialysis insert contains two chambers. The red chamber was for the plasma while the white chamber was for the buffer. The human and rat plasma (pH adjusted to 7.40) samples of test items and reference items (Warfarin and Propranolol) were prepared at a required test concentration of 5 μM using 5 mM DMSO stocks (final DMSO concentration was 0.1%). 300 μL of plasma sample was added into the sample chamber. 500 μL of buffer was added into the buffer chamber. After sealing the RED device with an adhesive film, incubation was done at 37° C. with shaking at 300 rpm for 4 h. Following incubation, an aliquot of 50 μL was removed from each well (plasma and buffer side) and diluted with equal volume of opposite matrix to nullify the matrix effect. The specimens were subjected to sample extraction in presence of internal standard by liquid-liquid extraction/protein precipitation method. After extraction, the samples were transferred into labeled auto sampler vials and submitted to LC-MS/MS analysis.

polio virus Sabin 1 = assay: organism not typed; assay type: cell-based; details: read-out: Polio 1 inhibition capacity (IC50)
coxsackie B3 virus = assay: In vitro CPE assay in mammalian cell culture, B3; assay type: cell-based; details: Enterovirus B, viral cytopathic effect in mammalian cell culture, read-out: B3 inhibition capacity (IC50)
Enterovirus 68 = assay: In vitro CPE assay in mammalian cell culture, EV68; assay type: cell-based; details: Enterovirus D, viral cytopathic effect in mammalian cell culture, read-out: EV68 inhibition capacity (IC50)
Enterovirus 6 = assay: In vitro CPE assay in mammalian cell culture, EV6; assay type: cell-based; details: viral cytopathic effect in mammalian cell culture, read-out: EV6 inhibition capacity (IC50)
Enterovirus 71 = assay: In vitro CPE assay in mammalian cell culture, EV71; assay type: cell-based; details: Enterovirus A, viral cytopathic effect in mammalian cell culture, read-out: EV71 inhibition capacity (IC50)
Enterovirus 30 = assay: In vitro CPE assay in mammalian cell culture, EV30; assay type: cell-based; details: viral cytopathic effect in mammalian cell culture, read-out: EV30 inhibition capacity (IC50)
[3] = Metabolic stability in rat liver microsomes; assay type: in vitro ADME; details: 5 μM test item, 0.125 mg/mL microsomal protein
Method: as §2

coxsackie B2 virus = assay: In vitro CPE assay in mammalian cell culture, B2; assay type: cell-based; details: viral cytopathic effect in mammalian cell culture, read-out: B2 inhibition capacity (IC50)
in vivo [4] = assay: in vivo; set-up: species or system Sprague Dawley rats; details: male, Sprague Dawley, rat, po, 50 mg/kg
Method: Overnight fasted animals were administered with the test compounds in recommended vehicle 0.4% (v/v) Tween 80+2% (v/v) Glycerol and 15% w/v HPBCD by oral route with a dose of 50 mg/kg body weight at dose volume of 10 mL/kg bw. Under mild isoflurane anesthesia, blood samples were collected into pre-labeled tubes containing anticoagulant (K2EDTA—2 mg/mL blood) during the next 24 hours post dose. Collected blood samples were centrifuged at 4000 rpm, 4° C. for 10 minutes and plasma was separated and stored at −80° C. until analysis.

coxsackie B1 virus = assay: In vitro CPE assay in mammalian cell culture, B1; assay type: cell-based; details: viral cytopathic effect in mammalian cell culture, read-out: B1 inhibition capacity (IC50)
EV71 = assay: Time of addition assay; assay type: cell-based, Enterovirus 71; details: Enterovirus A, 100 nM, EV71 at high titer
Method: The titer of the virus was determined by the standard method of tissue culture infective dose (TCID50) on cells. Briefly, cells were infected with 50 μl of virus suspension, and diluted 10-fold in media. The plates were incubated in 37° C. with 5% CO2 for 3-7 days and cells were inspected daily for CPE. After determining CPE, plates were stained with Gram's Crystal Violet solution and optical density was read at 540 nm. […] Substances at a final concentration of 0.1 nM-1 μM and the virus were added to the cells and incubated for 3-7 days depending on the virus and cell line used. As controls, uninfected cells and cells infected with virus (no substance) were included on each plate. The cells were stained with crystal violet after determining the CPE on infected controls and the optical density was read at 540 nm. The inhibition capacity was calculated as a % by comparison with non-infected and infected controls. Time of addition assay The assay was performed like the “in vitro assay in mammalian cell culture” described above with the exception that substance was added one hour pre inoculation (−1 h), at inoculation (0 h), and 2 hours (+2 h), 6 hours (+6 h) or 24 hours (+24 h) past inoculation. The virus EV71 was used at high titer for the test.

| SMILES | IC50 (coxsackie B5 virus) [nM] | IC50 (PI4KIIIβ) [nM] | IC50 (PI4KIIIα) [nM] | IC50 (PI3Kα) [nM] | IC50 (PI3Kβ) [nM] | IC50 (coxsackie B4 virus) [nM] | Remaining after 1 h, HLM [2] [%] | half-life at 5 μM [2] [min] | fraction unbound at 4 h, 5 μM (in vitro; human) | fraction unbound at 4 h, 5 μM (in vitro; rat) | IC50 (polio virus Sabin 1) [nM] | IC50 (coxsackie B3 virus) [nM] | IC50 (Enterovirus 68) [nM] | IC50 (Enterovirus 6) [nM] | IC50 (Enterovirus 71) [nM] | IC50 (Enterovirus 30) [nM] | Remaining after 1 h, RLM [3] [%] | IC50 (coxsackie B2 virus) [nM] | AUC(0-inf) (in vivo [4]) [ng·h/mL] | IC50 (coxsackie B1 virus) [nM] | also measured |
| --- | --- | --- | --- | --- | --- | --- | --- | --- | --- | --- | --- | --- | --- | --- | --- | --- | --- | --- | --- | --- | --- |
| Cc1cc(NCc2ccc(S(C)(=O)=O)cc2)n2nc(C)c(-c3ccc4c(c3)c(C)nn4C)c2n1 [Example 12, 3-(1,3-dimethyl-1H-indazol-5-yl)-2,5-dimethyl-N-(4-(methyl-sulfonyl)benzyl)pyrazolo[1,5-a]pyrimidin-7-amine] | < 1 | 0.8 | 800 | > 1000 | > 1000 | < 1 | 84 | > 120 | 0.01 | 0.015 | < 10 | < 1 | < 100 | < 10 | < 10 | < 1 | 71 | < 10 | 73300 ± 46900 | < 10 | NOAEL at 7 days (in vivo [1]): 50 mg/kg/day; AUC(0-t) (in vivo [4]): 30000 ± 8200 ng·h/mL; AUCextrap (in vivo [4]): 49.4 ± 24.5%; Cmax (in vivo [4]): 1900 ± 100 ng/mL; MRT last (in vivo [4]): 10.3 ± 1.2 h; Tmax (in vivo [4]): 5.3 ± 2.3 h; half-life (in vivo [4]): 1660 ± 1010 min |
| Cc1cc(NCc2ccc(S(C)(=O)=O)cc2)c2nc(C)c(-c3ccc4c(c3)c(C)nn4C)n2n1 [Example 7, 3-(1,3-dimethyl-1H-indazol-5-yl)-2,6-dimethyl-N-(4-(methyl-sulfonyl)benzyl)imidazo[1,2-b]pyridazin-8-amine] | < 10 |  |  |  |  | < 100 | 75 | > 120 | 0.005 | 0.006 | < 10 | < 1 | < 1 |  | < 1 | < 100 | 94 | < 10 |  | < 10 | inhibition at 0.1 µM (EV71; 0 h, substance added at inoculation, read-out: Inhibition of cytopathogenic effect, 0 h): 85%; inhibition at 0.1 µM (EV71; 1 h, substance added one hour pre inoculation, read-out: Inhibition of cytopathogenic effect, −1 h): 95%; inhibition at 0.1 µM (EV71; substance added 2 hours past inoculation, read-out: Inhibition of cytopathogenic effect, +2 h): 100%; inhibition at 0.1 µM (EV71; substance added 6 hours past inoculation, read-out: Inhibition of cytopathogenic effect, +6 h): 91%; inhibition at 0.1 µM (EV71; substance added 24 hours past inoculation, read-out: Inhibition of cytopathogenic effect, +24 h): 2% |
| Cc1ccc(CNc2cc(C)nn3c(-c4ccc5c(c4)c(C)nn5C)c(C)nc23)cn1 [Example 2, 3-(1,3-dimethyl-1H-indazol-5-yl)-2,6-dimethyl-N-((6-methylpyridin-3-yl)methyl)imidazo[1,2-b]pyridazin-8-amine] | < 100 | 1.5 | 200 | > 1000 | 1700 | < 10 |  |  |  |  | < 100 | < 10 | < 1000 | < 100 | < 100 | < 100 |  | < 100 | 64100 ± 7000 | < 100 | AUC(0-t) (in vivo [4]): 58600 ± 9900 ng·h/mL; AUCextrap (in vivo [4]): 8.8 ± 7.1%; Cmax (in vivo [4]): 4800 ± 800 ng/mL; MRT last (in vivo [4]): 6.9 ± 0.8 h; Tmax (in vivo [4]): 1.7 ± 0.6 h; half-life (in vivo [4]): 396 ± 144 min |
